Measurements published in publication PMC7140498, “Predicting liver cytosol stability of small molecules” (Journal of Cheminformatics, 2020).

Test: Metabolic stability assay (substrate depletion) in human liver cytosol fractions
Settings: both, human, cytosol, pH 7.4, t1/2 [min] (Right), external validation, sheet Human, right compound
Experimental: Our assay (384-well format) consisted of two parts; a robotic system for incubation and sample clean up and an integrated LC/MS method to calculate the percent remaining of parent compound. Briefly, each reaction mixture (110 μL) consisted of a test compound (1 μM) and either human or mouse cytosol fractions (2 mg/mL) in phosphate buffer (100 mM) at pH 7.4. Samples were incubated in 384-well plates at 37 °C for 0, 5, 10, 15, 30 and 60 min. Sample analysis and t1/2 calculations were performed using a previously described method [15]. […] A set of control compounds for low and high cytosolic stability were routinely run in each plate.

SMILES | half-life at 1 μM
CN1CCN(C(=O)Cc2cccn2-c2ccc(F)cc2)CC1 [CN1CCN(C(=O)Cc2cccn2-c2ccc(F)cc2)CC1] | > 2 h

Same assay, conditions: both, human, liver cytosol fractions, pH 7.4, t1/2 [min] (Left), external validation, sheet Human, left compound

SMILES | half-life at 1 μM
CC(=O)N1CCC(Cc2ccc(C(=O)NC3CC3)cc2)CC1 [CC(=O)N1CCC(Cc2ccc(C(=O)NC3CC3)cc2)CC1] | 1.33 h
N#Cc1cccc(CN2CC(COc3ccccc3)C3(C2)CN(c2ccccc2)C3)c1 (centres unmarked) | 0.693 h
N#Cc1ccc(C(=O)N2CCCOCCNC(=O)CC2)cc1 [N#Cc1ccc(C(=O)N2CCCOCCNC(=O)CC2)cc1] | > 2 h
N#Cc1ccc(CN2CC(Oc3ccc(F)cc3F)C2)cc1 [N#Cc1ccc(CN2CC(Oc3ccc(F)cc3F)C2)cc1] | 1.05 h
O=C(c1ccsc1)N1CCC(Oc2cccc(F)c2)C1 (centres unmarked) [O=C(c1ccsc1)N1CCC(Oc2cccc(F)c2)C1] | 1.38 h
CC(C)(C)c1coc([C@@H]2COCCN2Cc2cccc(C#N)c2)n1 | 0.943 h

Same assay, conditions: both, human, liver cytosol fractions, pH 7.4, t1/2 [min] (Right), external validation, sheet Human, right compound

half-life at 1 μM | SMILES
1.9 h | COc1cccc(-c2c(C(=O)N3CCCCC3)nc3sccn23)c1 [COc1cccc(-c2c(C(=O)N3CCCCC3)nc3sccn23)c1]
> 2 h | CCN1CCN(C(=O)c2nc3sccn3c2-c2cccc(OC)c2)CC1
> 2 h | CC1(c2ccccc2)N(Cc2ccccc2)C(=O)OC12CCN(Cc1ccc(C(=O)O)cc1)CC2 (centres unmarked)
> 2 h | CCOc1cc(=O)n2c(c1C(=O)Nc1ccc(S(N)(=O)=O)cc1)CCCC2
0.638 h | O=C(c1cccs1)N1CCC(Oc2ccccc2)C1 (centres unmarked) [O=C(c1cccs1)N1CCC(Oc2ccccc2)C1]
0.593 h | Cc1cc2cc(-c3c(C)noc3C)nc(Nc3ccccc3)c2o1 [Cc1cc2cc(-c3c(C)noc3C)nc(Nc3ccccc3)c2o1]
> 2 h | O=C(c1ccoc1)N1CCC(Oc2ccccc2)C1 (centres unmarked) [O=C(c1ccoc1)N1CCC(Oc2ccccc2)C1]
> 2 h | COc1cccc(-c2c(C(=O)NC3CC3)nc3sccn23)c1 [COc1cccc(-c2c(C(=O)NC3CC3)nc3sccn23)c1]
1.55 h | COc1cccc(-c2c(C(=O)Nc3ccc(C)cc3)nc3sccn23)c1
0.127 h | CN(Cc1ccccc1)C1CCOc2ccccc21 (centres unmarked) [CN(Cc1ccccc1)C1CCOc2ccccc21]
> 2 h | CN(CC1CCOC1)C(=O)Nc1ccccc1 (centres unmarked) [CN(CC1CCOC1)C(=O)Nc1ccccc1]
> 2 h | COc1cccc(-c2c(C(=O)N3CCOCC3)nc3sccn23)c1 [COc1cccc(-c2c(C(=O)N3CCOCC3)nc3sccn23)c1]
> 2 h | O=C(O)c1ccc(CN2CCOC[C@H]2c2nc(-c3ccc(F)cc3)c[nH]2)cc1
> 2 h | Cc1nn2c(c1-c1ccccc1Oc1ccccc1)N(Cc1ccc(C(=O)O)cc1)CCC2
0.47 h | COc1cccc(CN2CCOC[C@H](O)C2)c1 [COc1cccc(CN2CCOC[C@H](O)C2)c1]
> 2 h | COCCNC(=O)c1nc2sccn2c1-c1cccc(OC)c1 [COCCNC(=O)c1nc2sccn2c1-c1cccc(OC)c1]
> 2 h | COc1ccc(CN2CC[C@@](C)(O)[C@H](N3CCCC3)C2)cc1
1.97 h | COc1cccc(CN2CC[C@H](c3nnc(-c4ccco4)o3)C2)c1
0.993 h | COc1cccc(-c2cn3c(n2)N(C(=O)c2ccco2)CCC3)c1
> 2 h | O=C(N1CCN(S(=O)(=O)c2ccccc2)CC1)N1CC2CC(C1)[C@H]1CCCC(=O)N1C2 (some centres unmarked)
> 2 h | COc1cccc(CN2CCC3(CC2)OCCN(C)C3=O)c1 [COc1cccc(CN2CCC3(CC2)OCCN(C)C3=O)c1]
> 2 h | Cc1noc(-c2cn(C3CCN(C(=O)c4ccccc4)C3)nn2)n1 (centres unmarked)
> 2 h | COc1ccc(C(=O)N2C[C@@H](CO)[C@H](N(C)C)C2)cc1

SMILES | half-life at 1 μM
COc1ccc(CN2CC(Oc3ccc(OC)cc3)C2)cc1 [COc1ccc(CN2CC(Oc3ccc(OC)cc3)C2)cc1] | > 2 h
CN1CCC(OC2CCN(C(=O)c3ccccc3)CC2)CC1 [CN1CCC(OC2CCN(C(=O)c3ccccc3)CC2)CC1] | > 2 h
COc1ccc(CN2CCC3(C2)NC(=O)c2ccccc2O3)cc1 (centres unmarked) [COc1ccc(CN2CCC3(C2)NC(=O)c2ccccc2O3)cc1] | > 2 h
COc1ccc(C(=O)N2CCC3(CCC3OC)CC2)cc1 (centres unmarked) [COc1ccc(C(=O)N2CCC3(CCC3OC)CC2)cc1] | 1.17 h
COc1ccc(CN2CC(Oc3ccc(F)cc3C)C2)cc1 [COc1ccc(CN2CC(Oc3ccc(F)cc3C)C2)cc1] | 0.35 h
COc1ccc(CN2CC(Oc3ccc(F)c(C)c3)C2)cc1 [COc1ccc(CN2CC(Oc3ccc(F)c(C)c3)C2)cc1] | 0.36 h
COc1ccc(CN2CCC(N3CCNC3=O)CC2)cc1 [COc1ccc(CN2CCC(N3CCNC3=O)CC2)cc1] | > 2 h
CCOCCOC1CCN(C(=O)Nc2ccccc2)CC1 [CCOCCOC1CCN(C(=O)Nc2ccccc2)CC1] | > 2 h
COCCOC1CCN(C(=O)Nc2ccccc2)CC1 [COCCOC1CCN(C(=O)Nc2ccccc2)CC1] | > 2 h
CC(C)CN1C(=O)c2cccn2CC1C(=O)N1CCN(C)CC1 (centres unmarked) [CC(C)CN1C(=O)c2cccn2CC1C(=O)N1CCN(C)CC1] | 1.79 h
COc1ccc(CN2CC[C@H](c3nnc(C)o3)C2)cc1 [COc1ccc(CN2CC[C@H](c3nnc(C)o3)C2)cc1] | > 2 h
COc1ccccc1CN1CCC2(CC1)CC(O)CCO2 (centres unmarked) [COc1ccccc1CN1CCC2(CC1)CC(O)CCO2] | > 2 h
COc1ccc(CN2CC(Oc3ccc(F)c(F)c3)C2)cc1 [COc1ccc(CN2CC(Oc3ccc(F)c(F)c3)C2)cc1] | 0.5 h
COc1ccc(CN2CCC3(CC2)CC(=O)c2ccccc2O3)cc1 [COc1ccc(CN2CCC3(CC2)CC(=O)c2ccccc2O3)cc1] | > 2 h
COc1ccc(CN2CC(N3CCc4ccccc43)C2)cc1 [COc1ccc(CN2CC(N3CCc4ccccc43)C2)cc1] | 1.37 h
COc1ccc(CN2CCC(N3CCOC3=O)CC2)cc1 [COc1ccc(CN2CCC(N3CCOC3=O)CC2)cc1] | > 2 h

Same assay, conditions: both, human, liver cytosol fractions, pH 7.4, t1/2 [min] (left), in-house library pair, human transforms, left compound

SMILES | half-life at 1 μM
CC(=O)N1CCC(Cc2ccc(C(=O)NC3CC3)cc2)CC1 [CC(=O)N1CCC(Cc2ccc(C(=O)NC3CC3)cc2)CC1] | 1.33 h
N#Cc1cccc(CN2CC(COc3ccccc3)C3(C2)CN(c2ccccc2)C3)c1 (centres unmarked) | 0.693 h
N#Cc1ccc(C(=O)N2CCCOCCNC(=O)CC2)cc1 [N#Cc1ccc(C(=O)N2CCCOCCNC(=O)CC2)cc1] | > 2 h
N#Cc1ccc(CN2CC(Oc3ccc(F)cc3F)C2)cc1 [N#Cc1ccc(CN2CC(Oc3ccc(F)cc3F)C2)cc1] | 1.05 h
O=C(c1ccsc1)N1CCC(Oc2cccc(F)c2)C1 (centres unmarked) [O=C(c1ccsc1)N1CCC(Oc2cccc(F)c2)C1] | 1.38 h
CC(C)(C)c1coc([C@@H]2COCCN2Cc2cccc(C#N)c2)n1 | 0.943 h

Same assay, conditions: external validation, sheet Human, left compound

SMILES | t1/2 [min] (Left)
N#Cc1ccc(CN2C[C@@H](CO)[C@H](c3ccncc3)C2)cc1 | 107.1 min
N#Cc1cccc(CN2CCOC[C@H]2c2nc(-c3ccc(F)cc3)c[nH]2)c1 | 94.7 min
N#Cc1cccc(-c2c(C(=O)NC3CC3)nc3sccn23)c1 [N#Cc1cccc(-c2c(C(=O)NC3CC3)nc3sccn23)c1] | 95.2 min
Cc1ccc(-c2noc([C@@H]3Cc4[nH]cnc4CN3Cc3cccc(C#N)c3)n2)cc1 | 63.4 min
N#Cc1ccc(CN2CCC(N3CCNC3=O)CC2)cc1 [N#Cc1ccc(CN2CCC(N3CCNC3=O)CC2)cc1] | 93.2 min
N#Cc1cccc(CN2C[C@@H](CO)[C@H](c3ccccn3)C2)c1 | 57.4 min
COc1cncc(Nc2ncc(-c3cccc(F)c3)c3c2OCC3)c1 [COc1cncc(Nc2ncc(-c3cccc(F)c3)c3c2OCC3)c1] | 80.3 min
Cn1cnc2ccc(Nc3cccc(F)c3)nc2c1=O [Cn1cnc2ccc(Nc3cccc(F)c3)nc2c1=O] | 115.2 min
O=c1c2nc(Nc3cccc(F)c3)ccc2ncn1-c1ccccc1 [O=c1c2nc(Nc3cccc(F)c3)ccc2ncn1-c1ccccc1] | 93.9 min
CCOc1cc(=O)n2c(c1C(=O)Nc1ccc(C#N)cc1)CCCC2 | 101.4 min
Cc1ccccc1-c1n[nH]c2ncc(-c3cccc(F)c3)nc12 [Cc1ccccc1-c1n[nH]c2ncc(-c3cccc(F)c3)nc12] | 49 min
N#Cc1ccc(CN2CCC3(COc4ccccc4C(=O)N3)C2)cc1 (centres unmarked) | 38.4 min
Cc1ccc(NC(=O)c2nc3sccn3c2-c2cccc(C#N)c2)cc1 | 17.4 min
Cc1cc(OC2CN(Cc3ccc(C#N)cc3)C2)ccc1F [Cc1cc(OC2CN(Cc3ccc(C#N)cc3)C2)ccc1F] | 43.8 min
N#Cc1cccc(-c2cn3c(n2)N(C(=O)c2ccco2)CCC3)c1 | 36.7 min
Fc1cccc(-c2c[nH]c([C@@H]3COCCN3Cc3c[nH]cn3)n2)c1 | 59.3 min

SMILES | t1/2 [min] (Left)
O=C(c1ccoc1)N1CCC(Oc2cccc(F)c2)C1 (centres unmarked) [O=C(c1ccoc1)N1CCC(Oc2cccc(F)c2)C1] | 70.5 min
N#Cc1ccc(CN2CC(Oc3ccc(F)c(F)c3)C2)cc1 [N#Cc1ccc(CN2CC(Oc3ccc(F)c(F)c3)C2)cc1] | 71.4 min
Fc1cccc(Nc2ncc(-c3cccnc3)c3c2OCC3)c1 [Fc1cccc(Nc2ncc(-c3cccnc3)c3c2OCC3)c1] | 76.6 min
Fc1cccc(-c2noc(-c3nc(-c4ccncc4)no3)n2)c1 [Fc1cccc(-c2noc(-c3nc(-c4ccncc4)no3)n2)c1] | 26.4 min
Cc1cc2cc(-c3c(C)noc3C)nc(Nc3cccc(F)c3)c2o1 | 8.2 min
COC1CCC12CCN(C(=O)c1ccc(C#N)cc1)CC2 (centres unmarked) [COC1CCC12CCN(C(=O)c1ccc(C#N)cc1)CC2] | 79.2 min
CN(Cc1cccc(F)c1)C1CCOc2ccccc21 (centres unmarked) [CN(Cc1cccc(F)c1)C1CCOc2ccccc21] | 8.6 min
CNC(=O)[C@@H]1CN(C(=O)c2cccc(C#N)c2)C[C@H]1COC | 86.6 min
N#Cc1cccc(-c2c(C(=O)N3CCCCC3)nc3sccn23)c1 | 103.4 min
N#Cc1ccccc1CN1CCC2(CC1)CC(O)CCO2 (centres unmarked) [N#Cc1ccccc1CN1CCC2(CC1)CC(O)CCO2] | 80.3 min
COc1ccc(-c2n[nH]c3ncc(-c4cccc(F)c4)nc23)c(C)c1 | 75.8 min
Cn1ccc(NC(=O)c2ccc(-c3ncc4cnc(-c5cccc(F)c5)cn34)cc2)n1 | 33.2 min
O=C(NCCc1c[nH]cn1)c1ccc(-c2ncc3cnc(-c4cccc(F)c4)cn23)cc1 | 14.9 min
Cc1cc(F)ccc1OC1CN(Cc2ccc(C#N)cc2)C1 [Cc1cc(F)ccc1OC1CN(Cc2ccc(C#N)cc2)C1] | 35.4 min
O=C(Nc1cnc(-c2ccccc2)nc1)c1cccc(F)c1 [O=C(Nc1cnc(-c2ccccc2)nc1)c1cccc(F)c1] | 52 min
